Results as given in patent publication US11299488B2, “Five membered-aminoheterocycle and 5,6-or 6,6-membered bicyclic aminoheterocyclic inhibitors of rock for the treatment of heart failure” (BRISTOL-MYERS SQUIBB COMPANY, priority 2017, dated 2022).

Assays:
ROCK2 = ROCK2 (Homo sapiens (Human), UniProt O75116); assay: ROCK assay (Caliper LABCHIP peptide phosphorylation, 5 μM ATP); assay type: biochemical
Experimental: The effectiveness of compounds of the present invention as ROCK inhibitors can be determined in a 30 μL assay containing 20 mM HEPES, pH 7.5, 20 mM MgCl2, 0.015% Brij-35, 4 mM DTT, 5 μM ATP and 1.5 μM peptide substrate (FITC-AHA-AKRRRLSSLRA-OH) (SEQ ID No. 1). Compounds were dissolved in DMSO so that the final concentration of DMSO was <2%, and the reaction was initiated with Rho kinase variants. After incubation, the reaction was terminated by the addition of EDTA and the phosphorylated and non-phosphorylated peptides separated using a LABCHIP® 3000 Reader (Caliper Life Sciences). […] Compounds were tested in dose-response format, and the inhibition of kinase activity was calculated at each concentration of compound. The inhibition data were fit using a curve-fitting program to determine the IC50; i.e., the concentration of compound required to inhibit 50% of kinase activity. Representative Examples were tested in the ROCK assay described above and found having ROCK inhibitory activity. A range of ROCK inhibitory activity (IC50 values) of ≤50 μM (50000 nM) was observed. Table A below lists the ROCK IC50 values measured for the following examples.

[1] = test system: spontaneously hypertensive rat, renal hypertensive rat and deoxycortisone acetate salt hypertensive rat models; details: cited from earlier work
[2] = test system: congestive heart failure in Dahl salt-sensitive rats; details: rat, in vivo; cited from earlier work
neointimal formation = details: rats, similar model to balloon injury; cited from earlier work
rat stroke model = details: in vivo; cited from earlier work
[3] = test system: IL-1 beta-induced coronary stenosis; details: long term treatment; cited from earlier work

Sequence of ROCK2 (O75116 whole entry, species assumed): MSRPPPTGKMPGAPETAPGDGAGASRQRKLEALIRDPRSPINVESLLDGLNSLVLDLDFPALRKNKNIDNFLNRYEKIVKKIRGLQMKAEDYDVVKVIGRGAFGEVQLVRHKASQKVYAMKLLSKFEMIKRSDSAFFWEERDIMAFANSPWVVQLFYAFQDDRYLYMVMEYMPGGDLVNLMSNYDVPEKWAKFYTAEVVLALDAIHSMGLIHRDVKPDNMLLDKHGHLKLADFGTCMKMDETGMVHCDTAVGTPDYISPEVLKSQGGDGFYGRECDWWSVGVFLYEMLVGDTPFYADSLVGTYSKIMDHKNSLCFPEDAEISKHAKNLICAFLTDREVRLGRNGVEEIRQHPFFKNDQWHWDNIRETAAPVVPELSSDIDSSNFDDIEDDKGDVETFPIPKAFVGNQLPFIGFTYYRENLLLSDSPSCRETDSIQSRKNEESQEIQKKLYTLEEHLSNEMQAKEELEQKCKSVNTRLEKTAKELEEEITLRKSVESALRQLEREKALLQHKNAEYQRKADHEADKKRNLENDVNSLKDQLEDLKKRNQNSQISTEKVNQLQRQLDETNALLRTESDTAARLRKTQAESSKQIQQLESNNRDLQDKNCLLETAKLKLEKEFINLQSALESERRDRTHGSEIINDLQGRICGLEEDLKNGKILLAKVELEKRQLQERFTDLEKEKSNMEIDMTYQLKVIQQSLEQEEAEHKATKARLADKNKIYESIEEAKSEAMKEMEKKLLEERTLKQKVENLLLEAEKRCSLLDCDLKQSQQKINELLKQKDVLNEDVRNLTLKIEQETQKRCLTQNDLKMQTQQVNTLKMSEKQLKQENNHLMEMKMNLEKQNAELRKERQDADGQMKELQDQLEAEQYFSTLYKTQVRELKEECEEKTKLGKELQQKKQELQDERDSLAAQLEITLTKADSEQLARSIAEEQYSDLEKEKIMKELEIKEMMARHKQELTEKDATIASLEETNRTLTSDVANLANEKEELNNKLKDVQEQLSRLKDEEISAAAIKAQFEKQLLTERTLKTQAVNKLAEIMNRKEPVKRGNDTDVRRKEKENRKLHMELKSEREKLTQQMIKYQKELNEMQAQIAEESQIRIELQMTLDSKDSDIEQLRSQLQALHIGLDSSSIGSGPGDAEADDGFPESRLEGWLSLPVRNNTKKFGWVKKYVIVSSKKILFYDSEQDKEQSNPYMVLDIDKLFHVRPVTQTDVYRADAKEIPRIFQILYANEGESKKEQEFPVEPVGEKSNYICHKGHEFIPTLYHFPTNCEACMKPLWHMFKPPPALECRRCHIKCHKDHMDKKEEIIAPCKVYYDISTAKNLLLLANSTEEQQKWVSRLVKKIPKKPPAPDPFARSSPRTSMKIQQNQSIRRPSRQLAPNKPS

Row | IC50 (ROCK2) [nM] | Compound | also measured
1 | 1070 | [H][C@]1(Oc2ncccc2C(N)=O)C[C@]2(C[C@@H](Nc3ccnc(-c4cccc(C#N)c4)n3)C2)C1 (stereo partly drawn) [Example 66, 2-(((2S,4s,6S)-6-((2-(3-cyanophenyl)pyrimidin-4-yl)amino)spiro[3.3]heptan-2-yl)oxy)nicotinamide] | –
2 | 1170 | [H][C@]1(Oc2ncccc2C(N)=O)C[C@]2(C[C@@H](Nc3ccnc(-c4cccc(C(=O)N(C)C)c4)n3)C2)C1 (stereo partly drawn) [Example 67, 2-(((2S,4s,6S)-6-((2-(3-(dimethyl-carbamoyl)phenyl)pyrimidin-4-yl)amino)spiro[3.3]heptan-2-yl)oxy) nicotinamide] | –
3 | 1300 | [H][C@]1(Oc2ncccc2C(N)=O)C[C@]2(C[C@@H](Nc3ccnc(N4CC(F)(F)C4)n3)C2)C1 (stereo partly drawn) [Example 68, 2-(((2S,4s,6S)-6-((2-(3,3-difluoro-azetidin-1-yl)pyrimidin-4-yl)amino)spiro[3.3]heptan-2-yl)oxy) nicotinamide] | –
4 | 2240 | [H][C@]1(Oc2ncccc2C(N)=O)C[C@]2(C[C@@H](Nc3ccnc(-c4cccc(F)c4)n3)C2)C1 (stereo partly drawn) [Example 70, 2-(((2S,4s,6S)-6-((2-(3-fluorophenyl)pyrimidin-4-yl)amino)spiro[3.3]heptan-2-yl)oxy) nicotinamide] | –

More lines, now with the values behind:

Row | Compound | IC50 (ROCK2) [nM] | also measured
5 | [H][C@]1(Oc2ncccc2C(N)=O)C[C@]2(C[C@@H](Nc3nccc(-c4cnn(C)c4)n3)C2)C1 (stereo partly drawn) [Example 54, 2-(((2S,4s,6S)-6-((4-(1-methyl-1H-pyrazol-4-yl)pyrimidin-2-yl)amino)spiro[3.3]heptan-2-yl)oxy) nicotinamide] | 874 | –
6 | [H][C@]1(Oc2ncccc2C(N)=O)C[C@]2(C[C@@H](Nc3ccnc(N4CCCC(F)(F)C4)n3)C2)C1 (stereo partly drawn) [Example 60, 2-(((2S,4s,6S)-6-((2-(3,3-difluoropiperidin-1-yl)pyrimidin-4-yl)amino)spiro[3.3]heptan-2-yl)oxy)nicotinamide] | 220 | –
7 | [H][C@]1(Oc2ncccc2C(N)=O)C[C@]2(C[C@@H](Nc3ccnc(N4CCC(F)(F)CC4)n3)C2)C1 (stereo partly drawn) [Example 61, 2-(((2S,4s,6S)-6-((2-(4,4-difluoro-piperidin-1-yl)pyrimidin-4-yl)amino)spiro[3.3]heptan-2-yl)oxy) nicotinamide] | 334 | –
8 | [H][C@]1(Oc2ncccc2C(N)=O)C[C@]2(C[C@@H](Nc3ccnc(N4CCC(F)(F)C4)n3)C2)C1 (stereo partly drawn) [Example 62, 2-(((2S,4s,6S)-6-((2-(3,3-difluoro-pyrrolidin-1-yl)pyrimidin-4-yl)amino)spiro[3.3]heptan-2-yl)oxy) nicotinamide] | 398 | –
9 | [H][C@]1(Oc2ncccc2C(N)=O)C[C@]2(C[C@@H](Nc3ccnc(N4CCC(F)CC4)n3)C2)C1 (stereo partly drawn) [Example 63, 2-(((2S,4s,6S)-6-((2-(4-fluoro-piperidin-1-yl)pyrimidin-4-yl)amino)spiro [3.3]heptan-2-yl)oxy) nicotinamide] | 733 | –
10 | [H][C@]1(Oc2ncccc2C(N)=O)C[C@]2(C[C@@H](Nc3ccnc(N4CCCC(F)C4)n3)C2)C1 (stereo partly drawn) [Example 64, 2-(((2S,4s,6S)-6-((2-(3-fluoro-piperidin-1-yl)pyrimidin-4-yl)amino)spiro [3.3]heptan-2-yl)oxy) nicotinamide] | 890 | –
11 | [H][C@]1(Oc2ncccc2C(N)=O)C[C@]2(C[C@@H](Nc3ccnc(N4CCC(C(F)(F)F)CC4)n3)C2)C1 (stereo partly drawn) [Example 65, 2-(((2S,4s,6S)-6-((2-(4-(trifluoro-methyl)piperidin-1-yl)pyrimidin-4-yl)amino)spiro[3.3]heptan-2-yl)oxy) nicotinamide] | 964 | –
12 | C[C@@H](N)[C@H]1CC[C@H](C(=O)Nc2ccncc2)CC1 [Example Y-27632, Y-27632] | – | blood pressure in control rats ([1]; control rats): only a minor effect on blood pressure; blood pressure ([1]; three rat models of hypertension): significantly decrease blood pressure; ventricular hypertrophy, fibrosis and function [2]: improve ventricular hypertrophy, fibrosis and function; neointimal formation (neointimal formation): inhibited neointimal formation
13 | O=S(=O)(c1cccc2cnccc12)N1CCCNCC1 [fasudil] | – | infarct size and neurologic deficit (rat stroke model): reduce both the infarct size and neurologic deficit; coronary constrictive remodeling [3]: promote a regression of coronary constrictive remodeling; coronary stenosis [3]: progressively reduce coronary stenosis
